Experimental data published in publication PMC6850446, “In vivo inactivation of glycosidases by conduritol B epoxide and cyclophellitol as revealed by activity‐based protein profiling” (The Febs Journal, 2019).
Read-outs that look alike come from different tables or passages of the source.

Tests used:
GAA (zebrafish larvae) = target: T1, GAA (zebrafish larvae) (Danio rerio, UniProt A0A8M1QKP5); assay: live larvae exposed, residual activity in lysate with 4MU-alpha-D-glucopyranoside; conditions: in vivo: concentration in egg water, 5 days at 28.5 °C, assay pH 4.0
T1 construct: endogenous enzyme in larvae, measured in larval lysate; paralogues not distinguished
T1 sequence (A0A8M1QKP5 31-918): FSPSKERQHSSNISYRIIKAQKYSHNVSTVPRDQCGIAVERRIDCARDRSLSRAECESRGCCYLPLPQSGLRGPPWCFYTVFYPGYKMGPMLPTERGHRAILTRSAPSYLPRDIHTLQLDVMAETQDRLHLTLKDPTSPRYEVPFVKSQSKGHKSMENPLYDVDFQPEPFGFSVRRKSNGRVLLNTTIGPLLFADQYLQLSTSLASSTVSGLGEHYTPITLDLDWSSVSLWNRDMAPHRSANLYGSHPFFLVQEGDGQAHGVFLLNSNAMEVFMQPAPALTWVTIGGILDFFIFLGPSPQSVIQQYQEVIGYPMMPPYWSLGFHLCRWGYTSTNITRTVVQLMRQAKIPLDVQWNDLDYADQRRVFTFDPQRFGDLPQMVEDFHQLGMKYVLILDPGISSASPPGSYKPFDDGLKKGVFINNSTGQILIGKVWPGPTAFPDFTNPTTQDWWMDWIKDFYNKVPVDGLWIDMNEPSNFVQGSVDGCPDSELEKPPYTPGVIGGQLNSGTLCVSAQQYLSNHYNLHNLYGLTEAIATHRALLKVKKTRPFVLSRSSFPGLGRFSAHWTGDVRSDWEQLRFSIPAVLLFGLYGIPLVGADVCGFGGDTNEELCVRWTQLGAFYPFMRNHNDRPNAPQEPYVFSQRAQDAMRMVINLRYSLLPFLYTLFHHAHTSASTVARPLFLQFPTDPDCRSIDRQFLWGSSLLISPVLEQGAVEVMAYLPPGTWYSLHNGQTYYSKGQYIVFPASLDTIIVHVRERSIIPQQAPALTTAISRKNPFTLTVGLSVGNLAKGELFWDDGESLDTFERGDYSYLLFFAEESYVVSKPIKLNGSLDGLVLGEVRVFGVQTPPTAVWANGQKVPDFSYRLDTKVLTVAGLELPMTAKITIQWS
From the text: live larvae exposed, residual activity in lysate with 4MU-alpha-D-glucopyranoside on GAA (zebrafish larvae)

GBA (HEK293T cells) = target: T2, GBA (HEK293T cells) (Homo sapiens, UniProt P04062); assay: intact cells treated, residual activity in lysate with 4MU-glucoside; format: cell-based; conditions: covalent, 24 h treatment of intact HEK293T cells, assay pH 5.2 with 25 nM AMP-DNM to block GBA2
T2 construct: gene GBA1; endogenous lysosomal enzyme in HEK293T cells that stably express human GBA2; 58-66 kDa on gel
T2 sequence (P04062 40-536): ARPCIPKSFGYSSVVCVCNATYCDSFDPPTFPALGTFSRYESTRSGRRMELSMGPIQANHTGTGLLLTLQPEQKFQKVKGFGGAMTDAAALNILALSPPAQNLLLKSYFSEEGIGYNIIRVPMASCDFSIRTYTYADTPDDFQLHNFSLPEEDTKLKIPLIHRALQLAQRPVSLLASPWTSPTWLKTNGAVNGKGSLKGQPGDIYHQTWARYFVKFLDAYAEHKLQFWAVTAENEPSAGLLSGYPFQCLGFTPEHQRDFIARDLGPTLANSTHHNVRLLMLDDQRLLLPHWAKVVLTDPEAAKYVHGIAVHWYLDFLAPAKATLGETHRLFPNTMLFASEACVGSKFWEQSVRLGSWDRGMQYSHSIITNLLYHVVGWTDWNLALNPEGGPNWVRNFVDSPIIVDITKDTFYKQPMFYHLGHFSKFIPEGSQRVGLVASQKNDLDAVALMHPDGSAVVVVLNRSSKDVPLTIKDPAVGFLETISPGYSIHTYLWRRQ
From the text: intact cells treated, residual activity in lysate with 4MU-glucoside on GBA (HEK293T cells)

[1] = target: T3, GAA (lysosomal alpha-glucosidase) (Homo sapiens, UniProt P10253); assay: intact cells treated, residual activity in lysate with 4MU-alpha-D-glucopyranoside; format: cell-based; conditions: 24 h treatment of intact HEK293T cells, assay pH 4.0
T3 construct: endogenous enzyme in HEK293T cells (GBA2-expressing line)
From the text: intact cells treated, residual activity in lysate with 4MU-alpha-D-glucopyranoside on GAA (lysosomal alpha-glucosidase)

[2] = target: T4, GUSB (lysosomal beta-glucuronidase) (Homo sapiens, UniProt P08236); assay: intact cells treated, residual activity in lysate with 4MU-beta-D-glucuronide; format: cell-based; conditions: 24 h treatment of intact HEK293T cells, assay pH 5.0
T4 construct: endogenous enzyme in HEK293T cells (GBA2-expressing line)
T4 sequence (P08236 23-651): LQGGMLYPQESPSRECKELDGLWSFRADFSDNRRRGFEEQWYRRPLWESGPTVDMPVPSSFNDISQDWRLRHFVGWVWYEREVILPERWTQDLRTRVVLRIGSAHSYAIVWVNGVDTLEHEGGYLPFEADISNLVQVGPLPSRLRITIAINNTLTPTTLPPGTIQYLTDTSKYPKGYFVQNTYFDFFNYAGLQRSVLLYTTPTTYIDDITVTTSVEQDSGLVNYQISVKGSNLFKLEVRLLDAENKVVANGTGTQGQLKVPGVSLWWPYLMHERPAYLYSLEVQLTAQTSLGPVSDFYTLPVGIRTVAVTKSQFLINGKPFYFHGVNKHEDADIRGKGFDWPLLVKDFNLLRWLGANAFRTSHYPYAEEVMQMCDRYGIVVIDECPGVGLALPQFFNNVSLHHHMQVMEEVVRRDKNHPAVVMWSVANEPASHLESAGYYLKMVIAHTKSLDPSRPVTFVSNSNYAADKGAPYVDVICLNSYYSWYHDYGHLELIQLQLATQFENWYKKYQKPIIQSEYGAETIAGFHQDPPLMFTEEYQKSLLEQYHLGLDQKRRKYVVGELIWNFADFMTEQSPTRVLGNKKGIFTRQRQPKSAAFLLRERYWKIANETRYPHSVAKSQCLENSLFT

[3] = covalent, read-out: CBE / Enz. assay

IC50 (GAA (zebrafish larvae); [3]) | IC50 (GBA (HEK293T cells); read-out: CBE / Enz. assay) | IC50 [1, 3] | IC50 [2, 3] | Compound | IC50 (GAA (zebrafish larvae); read-out: CP / Enz. assay) | IC50 (GBA (HEK293T cells); read-out: CP / Enz. assay) | IC50 ([1]; read-out: CP / Enz. assay) | IC50 ([2]; read-out: apparent IC50)
5010 µM | 0.331 µM | 309 µM | 607 µM | OC1C(O)C(O)C2OC2C1O (centres unmarked) [compound 1, conduritol B epoxide] |  |  |  | 
 |  |  |  | OC[C@@H]1[C@@H](O)[C@H](O)[C@@H](O)[C@@H]2O[C@H]12 [compound 2, cyclophellitol] | > 100 µM | 0.086 µM | > 10 µM | > 10 µM
